The test system of test [1] is HEK293. The test can be described thus: NOD2 signaling inhibitors in MDP-stimulated cells, cell-based, uHTS, luminescence (AID 2001). It counts as functional. As to conditions: Homo sapiens.
In test [2] the test system is HEK293. The test can be described thus: cells. It counts as functional, cell-based. As to conditions: Homo sapiens.
Test [3] deals with Nucleotide-binding oligomerization domain-containing protein 2 (Homo sapiens, UniProt Q9HC29). The test can be described thus: inhibition of NOD2-driven NF-kB reporter – cell-based, luminescence, uHTS, HEK293 (AID 1566). It counts as functional.
Chain of Nucleotide-binding oligomerization domain-containing protein 2 (Q9HC29 whole entry, the tested form may be a part): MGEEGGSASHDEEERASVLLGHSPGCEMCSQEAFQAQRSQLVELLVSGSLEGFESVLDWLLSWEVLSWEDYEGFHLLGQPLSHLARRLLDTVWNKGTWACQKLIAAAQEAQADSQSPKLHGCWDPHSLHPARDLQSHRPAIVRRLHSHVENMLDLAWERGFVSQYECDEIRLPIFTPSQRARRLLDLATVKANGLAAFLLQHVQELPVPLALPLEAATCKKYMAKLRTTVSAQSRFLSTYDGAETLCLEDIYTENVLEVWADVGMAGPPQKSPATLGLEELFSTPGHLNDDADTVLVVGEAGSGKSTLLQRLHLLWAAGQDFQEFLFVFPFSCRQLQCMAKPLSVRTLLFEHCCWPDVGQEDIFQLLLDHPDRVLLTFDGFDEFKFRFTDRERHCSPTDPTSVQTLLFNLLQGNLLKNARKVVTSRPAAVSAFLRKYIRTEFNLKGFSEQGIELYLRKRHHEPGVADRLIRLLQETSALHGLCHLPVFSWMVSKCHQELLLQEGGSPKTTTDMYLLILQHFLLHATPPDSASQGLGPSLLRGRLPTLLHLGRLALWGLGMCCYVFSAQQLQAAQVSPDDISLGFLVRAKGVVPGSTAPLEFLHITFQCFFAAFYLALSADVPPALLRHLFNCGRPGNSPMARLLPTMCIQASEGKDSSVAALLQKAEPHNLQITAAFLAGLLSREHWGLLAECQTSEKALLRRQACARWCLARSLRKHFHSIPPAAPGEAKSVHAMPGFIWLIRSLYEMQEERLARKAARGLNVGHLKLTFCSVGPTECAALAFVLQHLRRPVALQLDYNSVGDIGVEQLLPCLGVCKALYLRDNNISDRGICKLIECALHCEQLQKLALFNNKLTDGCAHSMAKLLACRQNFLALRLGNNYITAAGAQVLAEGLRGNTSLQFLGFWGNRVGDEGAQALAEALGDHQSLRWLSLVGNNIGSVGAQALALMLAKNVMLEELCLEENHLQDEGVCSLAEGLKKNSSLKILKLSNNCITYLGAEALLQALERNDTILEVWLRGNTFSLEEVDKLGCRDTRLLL
The test system of test [4] is HEK293. In words: cells. Type of test: functional, cell-based. As to conditions: Homo sapiens. The source holds these as a separate data set.
Test [5] deals with HEK293. In words: cells. Type of test: functional, cell-based. As to conditions: Homo sapiens. The source holds these as a separate data set.
For test [6], the system named is HEK293. The test can be described thus: inhibition of NOD1-driven NF-kB reporter – cell-based, luminescence, uHTS, primary screen (AID 1578). Type of test: functional. As to conditions: Homo sapiens.

Calls of active or inactive are those of the source. Where only a bound is given, the exact number is not on record here.

With `Cc1ccc(NC(=O)CCC(=O)N/N=C/c2ccccc2O)cc1`, the IC50 in test [1] is > 20 µM (inactive); in test [2], > 20 µM (inactive); in test [4], 14.7 µM (active); in test [5] it was > 20 µM (inactive). Besides, the EC50 in test [3] and in test [6] was > 20 µM (inactive) each time.

The term IC50 denotes the concentration at which inhibition is half-maximal. Usually EC50 stands for the concentration at which the effect is half-maximal.

The values are drawn from ChEMBL document CHEMBL1201862, “PubChem BioAssay data set” (2004).
